Patent publication US9072746B2, “Method for enhancing learning and memory impaired by neurodegenerative disorders and compounds and compositions for effecting the same” (The Board of Trustees of the Leland Stanford Junior …, priority 2010, dated 2015)
Entries after “also recorded” stand apart in the source; their conditions may differ.

Tests used:
Format in all cases: in vivo
male 2N mice [1] = experiment: Contextual fear conditioning; details: xamoterol 3 mg/kg s.c. 1 h, betaxolol 1 mg/kg s.c. 30 min before testing
Description: (§1) Contextual and Cued fear conditioning was conducted for evaluation of fear-dependent learning and retrieval in the study. The test was performed using chambers from Coulbourn Instruments (Whitehall, Pa.). On the first day, the animals were placed in a chamber (Context A) for 3 min for baseline recording, followed by 5 tone-shock pairings. The shock (0.5 mA, 2 sec) was delivered following the tone (70 dB, 2 kHz, 20 sec) in each conditional/unconditional stimulus pairing. On the second day a novel chamber (Context B; new room, new olfactory environment, texture of floor, blue plastic inserts for walls, extra source of blue light, and visual cues) was used for cued testing. Three tones without shocks were presented to animals during a 3 min testing period following a 3 min pre-tone period. On the last day of the experiment, the mice were placed in Context A for 5 min without any conditional and unconditional stimulus {modified from the method described by (Saxe et al., 2006)}. Freezing was defined as the complete lack of motion for a minimum of 0.75 second as measured by FreezeFrame software (Actimetrics, Evanston, Ill.). The percent of freezing in each period was reported. For the startle response control test, an acoustic startle reflex apparatus (Med Associates Inc., St. Albans, Vt.) was used. The subjects were acclimated to the animal holder in the startle box for a total of 15 min over 3 consecutive-days prior to the experiment. The animals were exposed to 25 different trials with 10-20 second randomly variable inter-trial intervals. Five different intensities of startle pulses, 0, 90, 100, 110, and 120 dB, were randomly used, and each animal was randomly exposed 5 times to each intensity of the startle pulse. The duration of each startle pulse was 40 ms and the peak amplitude of the startle response in each trial was recorded for analysis. The holding cage on the apparatus was cleaned with 10% alcohol between each animal. […] In this part of the study, activity chamber and three cognitive tests, including T-maze spontaneous alternation, contextual fear conditioning (CFC), and novel object recognition were performed. In T-maze spontaneous alternation and contextual fear conditioning, both Ts65Dn and 2N male mice were divided into three treatment groups including normal saline (Vehicle), xamoterol, and betaxolol plus xamoterol groups. In the novel object recognition test, both Ts65Dn and 2N male mice were divided into two treatment groups, normal saline and xamoterol. The T-maze was performed exactly as previously described. […] On the first day (training day), animals were placed in the fear conditioning chamber, and after a 3-minute pre-shock period, they were exposed to 5 shocks (2 s, 0.5 mA,) with inter-trial intervals of 80 seconds and no tone. On the second day, the animals first received xamoterol, xamoterol plus betaxolol, or saline injection, and one hour later, they were placed in the same chamber for 5 minutes. Similar to the previous description of fear conditioning, freezing was defined as the complete lack of motion for a minimum of o.75 second. The Novel Object Recognition task is conducted in an open field arena (40 cm×40 cm). Mice were habituated in the testing room for 1 hour followed by 5 minutes habituation inside the arena without any objects. On 4th day animals were introduced 3 times to arena with 3 identical subjects for 10 minutes with 3 minutes inter trial intervals. On 5th day (24 hours after trainings) one of the objects replaced by a novel one and the time sniffing of each object were used for analysis. For testing the role of β1 adrenergic system, xamoterol and betaxolol (Tocris Bioscience, Ellisville, Mo.) were injected subcutaneously using 10 ml/kg normal saline as vehicle. Xamoterol, (3 mg/kg) was given one hour before testing and betaxolol (1 mg/kg) was given 30 minutes before testing.

male Ts65Dn mice [2] = experiment: Contextual fear conditioning; details: for effect on memory retrieval deficit in contextual fear conditioning: xamoterol 3 mg/kg s.c. one hour before testing
Description: as §1

male 2N mice [3] = experiment: Novel object recognition; details: xamoterol 3 mg/kg s.c.
Description: (§2) In this part of the study, activity chamber and three cognitive tests, including T-maze spontaneous alternation, contextual fear conditioning (CFC), and novel object recognition were performed. In T-maze spontaneous alternation and contextual fear conditioning, both Ts65Dn and 2N male mice were divided into three treatment groups including normal saline (Vehicle), xamoterol, and betaxolol plus xamoterol groups. In the novel object recognition test, both Ts65Dn and 2N male mice were divided into two treatment groups, normal saline and xamoterol. The T-maze was performed exactly as previously described. […] On the first day (training day), animals were placed in the fear conditioning chamber, and after a 3-minute pre-shock period, they were exposed to 5 shocks (2 s, 0.5 mA,) with inter-trial intervals of 80 seconds and no tone. On the second day, the animals first received xamoterol, xamoterol plus betaxolol, or saline injection, and one hour later, they were placed in the same chamber for 5 minutes. Similar to the previous description of fear conditioning, freezing was defined as the complete lack of motion for a minimum of o.75 second. The Novel Object Recognition task is conducted in an open field arena (40 cm×40 cm). Mice were habituated in the testing room for 1 hour followed by 5 minutes habituation inside the arena without any objects. On 4th day animals were introduced 3 times to arena with 3 identical subjects for 10 minutes with 3 minutes inter trial intervals. On 5th day (24 hours after trainings) one of the objects replaced by a novel one and the time sniffing of each object were used for analysis. For testing the role of β1 adrenergic system, xamoterol and betaxolol (Tocris Bioscience, Ellisville, Mo.) were injected subcutaneously using 10 ml/kg normal saline as vehicle. Xamoterol, (3 mg/kg) was given one hour before testing and betaxolol (1 mg/kg) was given 30 minutes before testing.

male Ts65Dn mice [4] = experiment: Novel object recognition; details: xamoterol 3 mg/kg s.c.
Description: as §2

[5] = Plasma and brain sample analysis after subcutaneous injection (FIG. 10C, D); details: after subcutaneous injection of 3 mg/kg
Description: FIG. 10 Xamoterol improves the memory retrieval dose-dependently by interaction with the adrenergic receptors in central nervous system. […] In all experiments xamoterol 3 mg/kg, atenolol 3 mg/kg, and betaxolol 1 mg/kg were injected subcutaneously. […] Results are shown as mean+SEM (ns=not significant, *=p<0.05, and **=p<0.01).

In the case of `O=C(NCCNCC(O)COc1ccc(O)cc1)N1CCOCC1` (centres unmarked) [xamoterol], the “% Freshing in Tone-cued Fear Conditioning, Mean ± SEM” value (male 2N mice [1]) is reported as 38.43 ± 8.26%, the “% Freshing in Tone-cued Fear Conditioning, Mean ± SEM” value (male Ts65Dn mice [2]; xamoterol 3 mg/kg s.c. 1 h, betaxolol 1 mg/kg s.c. 30 min before testing) is reported as 45.36 ± 12.40% and the “effect on memory retrieval deficit in contextual fear conditioning” value (shortened to “effect on memory retrieval deficit”) (male Ts65Dn mice [2]) is reported as “completely rescue”. For the same compound, the “effect on memory retrieval deficit” value (male Ts65Dn mice [2]; listed as Xamoterol) was “rescued; also recorded: improved”, the “effect on memory retrieval deficit” value (male Ts65Dn mice [2]; listed as Xamoterole) was “Xamoterole rescues the deficit in” and the “effect on novel object recognition performance” value (male 2N mice [3]; 2N mice) was “had no effect”. The “% of Total Investigation in Novel Object Recognition, Mean ± SEM” value (male 2N mice [3]; male 2N mice) was 78.6 ± 2.6%, the “% of Total Investigation in Novel Object Recognition, Mean ± SEM” value (male Ts65Dn mice [4]) was 73.6 ± 4.2% and the “effect on novel object recognition deficit” value (male Ts65Dn mice [4]) was “completely rescue; also recorded: corrected”. The “effect on novel object recognition deficit” value (male Ts65Dn mice [4]; listed as Xamoterol) was “could correct” and the “access to blood and brain (plasma and brain samples)” value [5] was “can get access to blood and brain”.
